Results on 15 compounds are retold here after patent US12084472B2 (Ardelyx, Inc., priority 2015, dated 2024).

Molecules are shown by their SMILES.

The target of this assay is T1, human TGR5 (Homo sapiens, UniProt Q8TDU6).
T1 construct: expressed in transfected cells; host or cells: HEK293
T1 sequence (Q8TDU6 1-330): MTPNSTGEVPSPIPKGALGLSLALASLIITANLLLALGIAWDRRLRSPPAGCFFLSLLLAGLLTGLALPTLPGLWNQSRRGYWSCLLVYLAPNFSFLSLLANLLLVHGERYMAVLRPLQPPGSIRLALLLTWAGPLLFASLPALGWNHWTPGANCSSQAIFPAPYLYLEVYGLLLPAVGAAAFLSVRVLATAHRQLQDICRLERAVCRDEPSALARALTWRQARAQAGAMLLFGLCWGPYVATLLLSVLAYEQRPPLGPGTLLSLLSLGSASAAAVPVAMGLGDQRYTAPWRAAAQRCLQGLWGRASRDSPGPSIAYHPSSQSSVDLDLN
Kind of assay: Cell-based TGR5 assay (cAMP generation, HTRF). The settings on record: HEK293 cells stably transfected with human TGR5; cAMP by HTRF; 30 minutes at 37° C.; read-out: pEC50 Human TGR5 (converted). An outline of the steps:
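Read-out was HTRF detection of cAMP, converted to concentration via a standard curve and fitted (3-parameter logistic) for pEC50 and maximal response. Agonist stimulation used HEK293 cells stably transfected with human TGR5, incubated 30 min at 37° C in IBMX-containing buffer at 0.05 nM to 10 μM compound.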
In general terms: TR-FRET usually uses a lanthanide donor and a delayed reading to cut background.
Turning to `CN(C[C@H](O)[C@@H](O)[C@H](O)[C@H](O)CO)C(=O)c1ccc(CSc2ccc(Cl)c(CNC3(c4cnccc4-c4ccccc4OC4CC4)CC3)c2)cc1` [Compound I-680, 4-[({4-chloro-3-[({1-[4-(2-cyclopropoxyphenyl)pyridin-3-yl]cyclopropyl}amino)methyl]phenyl}sulfanyl)methyl]-N-methyl-N-[(2S,3R,4R,5R)-2,3,4,5,6-pentahydroxyhexyl]benzamide], the EC50 was 0.126 to 1 µM.

Regarding `CN(C[C@H](O)[C@@H](O)[C@H](O)[C@H](O)CO)C(=O)CC1(CSc2ccc(Cl)c(CNC3(c4cnccc4-c4ccccc4OC4CC4)CC3)c2)CC1` [Compound I-681, 2-{1-[({4-chloro-3-[({1-[4-(2-cyclopropoxyphenyl)pyridin-3-yl]cyclopropyl}amino)methyl]phenyl}sulfanyl)methyl]cyclopropyl}-N-methyl-N-[(2S,3R,4R,5R)-2,3,4,5,6-pentahydroxyhexyl]acetamide], the EC50 is less than 0.1 µM. The same measure for `CN(C[C@H](O)[C@@H](O)[C@H](O)[C@H](O)CO)C(=O)CCCCSc1ccc(Cl)c(COC2(c3cnccc3-c3ccccc3OC3CC3)CC2)c1` [Compound I-682, 5-{[4-chloro-3-({1-[4-(2-cyclopropoxyphenyl)pyridin-3-yl]cyclopropoxy}methyl)phenyl]sulfanyl}-N-methyl-N-[(2S,3R,4R,5R)-2,3,4,5,6-pentahydroxyhexyl]pentanamide]: less than 0.1 µM; for `O=C(CCCSc1ccc(Cl)c(COC2(c3cnccc3-c3ccccc3OC3CC3)CC2)c1)N(CCOCCO)C[C@H](O)[C@@H](O)[C@H](O)[C@H](O)CO` [Compound I-683, 4-{[4-chloro-3-({1-[4-(2-cyclopropoxyphenyl)pyridin-3-yl]cyclopropoxy}methyl)phenyl]sulfanyl}-N-[2-(2-hydroxyethoxy)ethyl]-N-[(2S,3R,4R,5R)-2,3,4,5,6-pentahydroxyhexyl]butanamide]: 0.126 to 1 µM; for `O=C(CCCSc1ccc(Cl)c(COC2(c3cnccc3-c3ccccc3OC3CC3)CC2)c1)N(CCCCCO)C[C@H](O)[C@@H](O)[C@H](O)[C@H](O)CO` [Compound I-684, 4-f{[4-chloro-3-({1-[4-(2-cyclopropoxyphenyl)pyridin-3-yl]cyclopropoxy}methyl)phenyl]sulfanyl}-N-(5-hydroxypentyl)-N-[(2S,3R,4R,5R)-2,3,4,5,6-pentahydroxyhexyl]butanamide]: 0.126 to 1 µM. With `CN(C[C@H](O)[C@@H](O)[C@H](O)[C@H](O)CO)C(=O)c1ccc(CSc2ccc(Cl)c(COC3(c4cnccc4-c4ccccc4OC4CC4)CC3)c2)cc1` [Compound I-685, 4-({[4-chloro-3-({1-[4-(2-cyclopropoxyphenyl)pyridin-3-yl]cyclopropoxy}methyl)phenyl]sulfanyl}methyl)-N-methyl-N-[(2S,3R,4R,5R)-2,3,4,5,6-pentahydroxyhexyl]benzamide], the EC50 was less than 0.1 µM. For the compound `O=C(CCCSc1ccc(Cl)c(COC2(c3cnccc3-c3ccccc3OC3CC3)CC2)c1)N(CCS(=O)(=O)N1CCOCC1)C[C@H](O)[C@@H](O)[C@H](O)[C@H](O)CO` [Compound I-686, 4-{[4-chloro-3-({1-[4-(2-cyclopropoxyphenyl)pyridin-3-yl]cyclopropoxy}methyl)phenyl]sulfanyl}-N-[2-(morpholine-4-sulfonyl)ethyl]-N-[(2S,3R,4R,5R)-2,3,4,5,6-pentahydroxyhexyl]butanamide], the EC50 was 0.126 to 1 µM.

With `CC(C)(CO)CN(C[C@@H](O)[C@H](O)[C@@H](O)[C@@H](O)CO)C(=O)CCCSc1ccc(Cl)c(COC2(c3cnccc3-c3ccccc3OC3CC3)CC2)c1` [Compound I-687, 4-{[4-chloro-3-({1-[4-(2-cyclopropoxyphenyl)pyridin-3-yl]cyclopropoxy}methyl)phenyl]sulfanyl}-N-(3-hydroxy-2,2-dimethylpropyl)-N-[(2R,3S,4S,5S)-2,3,4,5,6-pentahydroxyhexyl]butanamide], the EC50 is 0.126 to 1 µM.

With `O=C(CCCSc1ccc(Cl)c(COC2(c3cnccc3-c3ccccc3OC3CC3)CC2)c1)N(C[C@@H](O)[C@H](O)[C@@H](O)[C@@H](O)CO)[C@H]1CC[C@@H](O)CC1` [Compound I-688, 4-{[4-chloro-3-({1-[4-(2-cyclopropoxyphenyl)pyridin-3-yl]cyclopropoxy}methyl)phenyl]sulfanyl}-N-[(2R,3S,4S,5S)-2,3,4,5,6-pentahydroxyhexyl]-N-[(1s,4s)-4-hydroxycyclohexyl]butanamide], the EC50 is 0.126 to 1 µM. For `CC(CCSc1ccc(Cl)c(COC2(c3cnccc3-c3ccccc3OC3CC3)CC2)c1)C(=O)N(C)C[C@H](O)[C@@H](O)[C@H](O)[C@H](O)CO` (stereo partly drawn) [Compound I-689, 4-{[4-chloro-3-({1-[4-(2-cyclopropoxyphenyl)pyridin-3-yl]cyclopropoxy}methyl)phenyl]sulfanyl}-N,2-dimethyl-N-[(2S,3R,4R,5R)-2,3,4,5,6-pentahydroxyhexyl]butanamide], the EC50 was less than 0.1 µM. `CC(CCSc1ccc(Cl)c(COC2(c3cnccc3-c3ccccc3OC3CC3)CC2)c1)C(=O)NC[C@H](O)[C@@H](O)[C@H](O)[C@H](O)CO` (stereo partly drawn) [Compound I-690, 4-{[4-chloro-3-({1-[4-(2-cyclopropoxyphenyl)pyridin-3-yl]cyclopropoxy}methyl)phenyl]sulfanyl}-2-methyl-N-[(2S,3R,4R,5R)-2,3,4,5,6-pentahydroxyhexyl]butanamide]: the EC50 was less than 0.1 µM.

`CCc1ccc(SCCCC(=O)N(C)C[C@H](O)[C@@H](O)[C@H](O)[C@H](O)CO)cc1COC1(c2cnccc2-c2ccccc2OC2CC2)CC1` [Compound I-691, 4-{[3-({1-[4-(2-cyclopropoxyphenyl)pyridin-3-yl]cyclopropoxy}methyl)-4-ethylphenyl]sulfanyl}-N-methyl-N-[(2S,3R,4R,5R)-2,3,4,5,6-pentahydroxyhexyl]butanamide]: the EC50 was 0.126 to 1 µM.

For `O=C(CCCSc1ccc(Cl)c(COC2(c3cnccc3-c3ccccc3OC3CC3)CC2)c1)N(CCCCO)C[C@H](O)[C@@H](O)[C@H](O)[C@H](O)CO` [Compound I-692, 4-{[4-chloro-3-({1-[4-(2-cyclopropoxyphenyl)pyridin-3-yl]cyclopropoxy}methyl)phenyl]sulfanyl}-N-(4-hydroxybutyl)-N-[(2S,3R,4R,5R)-2,3,4,5,6-pentahydroxyhexyl]butanamide], the EC50 was 0.126 to 1 µM.

Take `CN(C)S(=O)(=O)CCN(C[C@H](O)[C@@H](O)[C@H](O)[C@H](O)CO)C(=O)CCCSc1ccc(Cl)c(COC2(c3cnccc3-c3ccccc3OC3CC3)CC2)c1` [Compound I-693, 4-{[4-chloro-3-({1-[4-(2-cyclopropoxyphenyl)pyridin-3-yl]cyclopropoxy}methyl)phenyl]sulfanyl}-N-[2-(dimethylsulfamoyl)ethyl]-N-[(2S,3R,4R,5R)-2,3,4,5,6-pentahydroxyhexyl]butanamide]: the EC50 is 0.126 to 1 µM.

In the case of `CNS(=O)(=O)CCN(C[C@H](O)[C@@H](O)[C@H](O)[C@H](O)CO)C(=O)CCCSc1ccc(Cl)c(COC2(c3cnccc3-c3ccccc3OC3CC3)CC2)c1` [Compound I-694, 4-{[4-chloro-3-({1-[4-(2-cyclopropoxyphenyl)pyridin-3-yl]cyclopropoxy}methyl)phenyl]sulfanyl}-N-[2-(methylsulfamoyl)ethyl]-N-[(2S,3R,4R,5R)-2,3,4,5,6-pentahydroxyhexyl]butanamide], the EC50 is 0.126 to 1 µM.
